Assay results from the NIST ThermoML archive (doi:10.1016/j.jct.2006.04.007).

Assay: mn = molality of the nth substance listed, in mol/kg
Conditions: 350 kPa, Liquid; for apparent molar heat capacity: Extra sensitive DSC

CNC(C)=O [N-methylacetamide] + O
Conditions	apparent molar heat capacity [J/K/mol]	mass density [kg/m3]
278.15 K, m1 = 0.015	221	999.98
278.15 K, m1 = 0.04	230	1000.02
278.15 K, m1 = 0.07	243.9	1000.14
278.15 K, m1 = 0.1001	239.7	1000.14
278.15 K, m1 = 0.2002	240.2	1000.14
278.15 K, m1 = 0.4	238.2	1000.26
278.15 K, m1 = 0.599	251.1	1000.35
278.15 K, m1 = 0.8028	237.5	1000.66
278.15 K, m1 = 1	236.3	1000.98
283.15 K, m1 = 0.015	217	999.8
283.15 K, m1 = 0.04	225	999.78
283.15 K, m1 = 0.07	246	999.85
283.15 K, m1 = 0.1001	242.5	999.83
283.15 K, m1 = 0.2002	243.9	999.82
283.15 K, m1 = 0.4	242.3	999.89
283.15 K, m1 = 0.599	254.9	1000
283.15 K, m1 = 0.8028	242.4	1000.14
283.15 K, m1 = 1	241.4	1000.43
288.15 K, m1 = 0.015	213	999.2
288.15 K, m1 = 0.04	221	999.19
288.15 K, m1 = 0.07	247	999.23
288.15 K, m1 = 0.1001	247.1	999.22
288.15 K, m1 = 0.2002	247.9	999.16
288.15 K, m1 = 0.4	246	999.24
288.15 K, m1 = 0.599	257.6	999.28
288.15 K, m1 = 0.8028	245.8	999.39
288.15 K, m1 = 1	244.9	999.54
293.15 K, m1 = 0.015	220	–
293.15 K, m1 = 0.04	230	–
293.15 K, m1 = 0.07	250	–
293.15 K, m1 = 0.1001	251.4	–
293.15 K, m1 = 0.2002	251.6	–
293.15 K, m1 = 0.4	249.2	–
293.15 K, m1 = 0.599	259.8	–
293.15 K, m1 = 0.8028	248.7	–
293.15 K, m1 = 1	248	–
298.15 K, m1 = 0.015	228	–
298.15 K, m1 = 0.04	238	–
298.15 K, m1 = 0.07	252.1	–
298.15 K, m1 = 0.1001	254.8	–
298.15 K, m1 = 0.2002	254.7	–
298.15 K, m1 = 0.4	251.85	–
298.15 K, m1 = 0.599	261.9	–
298.15 K, m1 = 0.8028	251.4	–
298.15 K, m1 = 1	250.8	–
303.15 K, m1 = 0.015	232	–
303.15 K, m1 = 0.04	245	–
303.15 K, m1 = 0.07	254.5	–
303.15 K, m1 = 0.1001	259	–
303.15 K, m1 = 0.2002	258.7	–
303.15 K, m1 = 0.4	254.53	–
303.15 K, m1 = 0.599	264	–
303.15 K, m1 = 0.8028	254.1	–
303.15 K, m1 = 1	253.5	–
308.15 K, m1 = 0.015	236	994.14
308.15 K, m1 = 0.04	250.5	994.12
308.15 K, m1 = 0.07	257.5	994.1
308.15 K, m1 = 0.1001	262.8	994.07
308.15 K, m1 = 0.2002	261.8	993.96
308.15 K, m1 = 0.4	257.09	993.88
308.15 K, m1 = 0.599	266	993.8
308.15 K, m1 = 0.8028	256.5	993.77
308.15 K, m1 = 1	255.95	993.7
313.15 K, m1 = 0.015	243	–
313.15 K, m1 = 0.04	256.4	–
313.15 K, m1 = 0.07	259.8	–
313.15 K, m1 = 0.1001	264.8	–
313.15 K, m1 = 0.2002	263.9	–
313.15 K, m1 = 0.4	259.34	–
313.15 K, m1 = 0.599	267.9	–
313.15 K, m1 = 0.8028	258.7	–
313.15 K, m1 = 1	258.14	–
318.15 K, m1 = 0.015	252	990.32
318.15 K, m1 = 0.04	264.9	990.29
318.15 K, m1 = 0.07	261.2	990.24
318.15 K, m1 = 0.1001	266	990.21
318.15 K, m1 = 0.2002	265.6	990.07
318.15 K, m1 = 0.4	261.43	989.92
318.15 K, m1 = 0.599	269.7	989.82
318.15 K, m1 = 0.8028	260.8	989.72
318.15 K, m1 = 1	260.24	989.61
323.15 K, m1 = 0.015	259	–
323.15 K, m1 = 0.04	268.9	–
323.15 K, m1 = 0.07	262.6	–
323.15 K, m1 = 0.1001	267.4	–
323.15 K, m1 = 0.2002	267.4	–
323.15 K, m1 = 0.4	263.5	–
323.15 K, m1 = 0.599	271.4	–
323.15 K, m1 = 0.8028	262.77	–
323.15 K, m1 = 1	262.22	–
328.15 K, m1 = 0.015	260	985.77
328.15 K, m1 = 0.04	266.5	985.75
328.15 K, m1 = 0.07	265	985.75
328.15 K, m1 = 0.1001	269.3	985.75
328.15 K, m1 = 0.2002	269.2	985.56
328.15 K, m1 = 0.4	265.52	985.32
328.15 K, m1 = 0.599	273.1	985.18
328.15 K, m1 = 0.8028	264.63	985.04
328.15 K, m1 = 1	264.06	984.85
333.15 K, m1 = 0.015	260	–
333.15 K, m1 = 0.04	265.7	–
333.15 K, m1 = 0.07	267	–
333.15 K, m1 = 0.1001	271.2	–
333.15 K, m1 = 0.2002	271	–
333.15 K, m1 = 0.4	267.55	–
333.15 K, m1 = 0.599	274.8	–
333.15 K, m1 = 0.8028	266.47	–
333.15 K, m1 = 1	265.86	–
338.15 K, m1 = 0.015	264	–
338.15 K, m1 = 0.04	266.3	–
338.15 K, m1 = 0.07	269.1	–
338.15 K, m1 = 0.1001	272.8	–
338.15 K, m1 = 0.2002	272.4	–
338.15 K, m1 = 0.4	269.46	–
338.15 K, m1 = 0.599	276.4	–
338.15 K, m1 = 0.8028	268.26	–
338.15 K, m1 = 1	267.6	–
343.15 K, m1 = 0.015	268	–
343.15 K, m1 = 0.04	267.1	–
343.15 K, m1 = 0.07	270.8	–
343.15 K, m1 = 0.1001	274.1	–
343.15 K, m1 = 0.2002	273.7	–
343.15 K, m1 = 0.4	271.09	–
343.15 K, m1 = 0.599	277.9	–
343.15 K, m1 = 0.8028	269.89	–
343.15 K, m1 = 1	269.2	–
348.15 K, m1 = 0.015	271	974.89
348.15 K, m1 = 0.04	268.3	974.87
348.15 K, m1 = 0.07	272.5	974.87
348.15 K, m1 = 0.1001	275.2	974.82
348.15 K, m1 = 0.2002	274.9	974.63
348.15 K, m1 = 0.4	272.57	974.29
348.15 K, m1 = 0.599	279.4	974.05
348.15 K, m1 = 0.8028	271.43	973.79
348.15 K, m1 = 1	270.73	973.51
353.15 K, m1 = 0.015	273	–
353.15 K, m1 = 0.04	269.5	–
353.15 K, m1 = 0.07	274	–
353.15 K, m1 = 0.1001	276.3	–
353.15 K, m1 = 0.2002	276	–
353.15 K, m1 = 0.4	273.95	–
353.15 K, m1 = 0.599	280.7	–
353.15 K, m1 = 0.8028	272.85	–
353.15 K, m1 = 1	272.12	–
358.15 K, m1 = 0.015	274	968.67
358.15 K, m1 = 0.04	270.2	968.65
358.15 K, m1 = 0.07	275.5	968.63
358.15 K, m1 = 0.1001	277.5	968.56
358.15 K, m1 = 0.2002	277.2	968.36
358.15 K, m1 = 0.4	275.31	967.97
358.15 K, m1 = 0.599	281.9	967.67
358.15 K, m1 = 0.8028	274.18	967.36
358.15 K, m1 = 1	273.45	967.06
363.15 K, m1 = 0.015	276	–
363.15 K, m1 = 0.04	270.5	–
363.15 K, m1 = 0.07	277.1	–
363.15 K, m1 = 0.1001	278.7	–
363.15 K, m1 = 0.2002	278.5	–
363.15 K, m1 = 0.4	276.62	–
363.15 K, m1 = 0.599	283.1	–
363.15 K, m1 = 0.8028	275.42	–
363.15 K, m1 = 1	274.69	–
368.15 K, m1 = 0.015	277	961.97
368.15 K, m1 = 0.04	270.9	961.92
368.15 K, m1 = 0.07	278.3	961.9
368.15 K, m1 = 0.1001	279.7	961.83
368.15 K, m1 = 0.2002	279.5	961.62
368.15 K, m1 = 0.4	277.76	961.19
368.15 K, m1 = 0.599	284.1	960.81
368.15 K, m1 = 0.8028	276.51	960.43
368.15 K, m1 = 1	275.75	960.09
373.15 K, m1 = 0.015	277	–
373.15 K, m1 = 0.04	270.8	–
373.15 K, m1 = 0.07	279.3	–
373.15 K, m1 = 0.1001	280.7	–
373.15 K, m1 = 0.2002	280.5	–
373.15 K, m1 = 0.4	278.82	–
373.15 K, m1 = 0.599	285.12	–
373.15 K, m1 = 0.8028	277.53	–
373.15 K, m1 = 1	276.77	–
378.15 K, m1 = 0.015	275	–
378.15 K, m1 = 0.04	270.6	–
378.15 K, m1 = 0.07	280	–
378.15 K, m1 = 0.1001	281.5	–
378.15 K, m1 = 0.2002	281.4	–
378.15 K, m1 = 0.4	279.75	–
378.15 K, m1 = 0.599	286.01	–
378.15 K, m1 = 0.8028	278.43	–
378.15 K, m1 = 1	277.65	–
383.15 K, m1 = 0.015	273	–
383.15 K, m1 = 0.04	270.2	–
383.15 K, m1 = 0.07	280.4	–
383.15 K, m1 = 0.1001	282.2	–
383.15 K, m1 = 0.2002	282.2	–
383.15 K, m1 = 0.4	280.52	–
383.15 K, m1 = 0.599	286.77	–
383.15 K, m1 = 0.8028	279.21	–
383.15 K, m1 = 1	278.41	–
388.15 K, m1 = 0.015	273	–
388.15 K, m1 = 0.04	270.5	–
388.15 K, m1 = 0.07	281.2	–
388.15 K, m1 = 0.1001	282.6	–
388.15 K, m1 = 0.2002	282.8	–
388.15 K, m1 = 0.4	281.15	–
388.15 K, m1 = 0.599	287.45	–
388.15 K, m1 = 0.8028	279.89	–
388.15 K, m1 = 1	279.13	–
393.15 K, m1 = 0.015	278	–
393.15 K, m1 = 0.04	273.2	–
393.15 K, m1 = 0.07	282.4	–
393.15 K, m1 = 0.1001	281.9	–
393.15 K, m1 = 0.2002	282.8	–
393.15 K, m1 = 0.4	281.41	–
393.15 K, m1 = 0.599	287.87	–
393.15 K, m1 = 0.8028	280.37	–
393.15 K, m1 = 1	279.71	–
